According to patent publication US9969694B2, “N-(arylalkyl)-N′-pyrazolyl-urea, thiourea, guanidine and cyanoguanidine compounds as TrkA kinase inhibitors” (Array BioPharma Inc., priority 2012, dated 2018):

Molecular target: T1, His-tagged recombinant human TrkA (Homo sapiens, UniProt P04629)
T1 construct: 6HIS tagged cytoplasmic domain from Invitrogen, Catalog No. PV3144; purchased Invitrogen PV3144
Assay: TrkA Kinase Binding Assay (LanthaScreen Eu)
Settings: averaged IC50; TR-FRET binding, 60 min, 22° C.; read-out: TrkA Enzyme IC50
Procedure: TrkA binding activity was determined in a TrkA LanthaScreen™ Eu Kinase Binding Assay. 5 nM His-tagged recombinant human TrkA (6HIS tagged cytoplasmic domain from Invitrogen, Catalog No. PV3144) was incubated with 4 nM Alexa-Fluor® Tracer 236 (Invitrogen Cat. No. PV5592), 2 nM biotinylated anti-His (Invitrogen Cat. No. PV6090), and 2 nM europium-labeled Streptavidin (Invitrogen Cat. No. PV5899), in buffer (25 mM MOPS, pH 7.5, 5 mM MgCl2, 0.005% Triton X-100). Three fold serial dilutions of compounds of the invention in DMSO were added to a final percentage of 2% DMSO. After 60-minute incubation at 22° C., the reaction was measured using the EnVision mutlimode plate reader (PerkinElmer) via TR-FRET dual wavelength detection at […]. The percent of control was calculated using a ratiometric emission factor. The IC50 values were determined by fitting a four parameter model to the percent of control data.
Table A provides averaged IC50 values for compounds of the invention when tested in the assay of Example A, where A represents an averaged IC50 value <100 nM; B represents an averaged IC50 value from 100 to 1,000 nM; and C represents an average 1050 value above 1000 nM.

T1 sequence (P04629 440-796 limits assumed): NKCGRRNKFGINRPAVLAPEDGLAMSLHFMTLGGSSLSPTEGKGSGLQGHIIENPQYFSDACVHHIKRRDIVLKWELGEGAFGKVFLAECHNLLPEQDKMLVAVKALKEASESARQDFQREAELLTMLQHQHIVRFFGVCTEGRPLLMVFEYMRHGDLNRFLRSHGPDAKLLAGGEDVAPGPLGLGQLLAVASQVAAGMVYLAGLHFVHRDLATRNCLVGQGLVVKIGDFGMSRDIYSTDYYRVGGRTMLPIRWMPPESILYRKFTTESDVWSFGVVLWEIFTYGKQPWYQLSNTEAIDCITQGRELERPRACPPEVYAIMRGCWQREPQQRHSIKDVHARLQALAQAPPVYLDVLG

Row | Structure (SMILES) | IC50
1 | COCc1ccc(OC(F)(F)F)c(CNC(=O)Nc2c(C)c(OC[C@H](O)CO)nn2-c2ccccc2)c1 [Example 65, (R)-1-(3-(2,3-dihydroxypropoxy)-4-methyl-1-phenyl-1H-pyrazol-5-yl)-3-(5-(methoxymethyl)-2-(trifluoromethoxy)benzyl)urea] | < 100 nM
2 | COCc1ccc(OC(F)(F)F)c(CNC(=O)Nc2c(C)c(C3CCNCC3)nn2-c2ccccc2)c1 [Example 66, 1-(5-(methoxymethyl)-2-(trifluoromethoxy)benzyl)-3-(4-methyl-1-phenyl-3-(piperidin-4-yl)-1H-pyrazol-5-yl)urea] | < 100 nM
3 | COCc1ccc(OC(F)(F)F)c(CNC(=O)Nc2c(C)c(OCC3CCNCC3)nn2-c2ccccc2)c1 [Example 67, 1-(5-(methoxymethyl)-2-(trifluoromethoxy)benzyl)-3-(4-methyl-1-phenyl-3-(piperidin-4-ylmethoxy)-1H-pyrazol-5-yl)urea] | < 100 nM
4 | CNC(=O)c1nn(-c2ccccc2)c(NC(=O)NCc2cc(COC)ccc2OCC(F)(F)F)c1C [Example 68, 5-(3-(5-(methoxymethyl)-2-(2,2,2-trifluoroethoxy)benzyl)ureido)-N,4-dimethyl-1-phenyl-1H-pyrazole-3-carboxamide] | 100 to 1000 nM
5 | COCc1ccc(OCC(F)(F)F)c(CNC(=O)Nc2c(C)c(-c3cnc(OC)nc3)nn2-c2ccccc2)c1 [Example 69, 1-(5-(methoxymethyl)-2-(2,2,2-trifluoroethoxy)benzyl)-3-(3-(2-methoxypyrimidin-5-yl)-4-methyl-1-phenyl-1H-pyrazol-5-yl)urea] | < 100 nM
6 | COCc1ccc(OC(F)(F)F)c(CNC(=O)Nc2c(C)c(OCC3(F)CCNCC3)nn2-c2ccccc2)c1 [Example 70, 1-(3-((4-fluoropiperidin-4-yl)methoxy)-4-methyl-1-phenyl-1H-pyrazol-5-yl)-3-(5-(methoxymethyl)-2-(trifluoromethoxy)benzyl)urea] | < 100 nM
7 | COCc1ccc(OC(F)(F)F)c(CNC(=O)Nc2c(C)c(OCC3CCNC3)nn2-c2ccccc2)c1 (stereo not shown) [Example 71] | < 100 nM
8 | COCc1ccc(OC(F)(F)F)c(CNC(=O)Nc2c(C)c(OCC3CNC3)nn2-c2ccccc2)c1 [Example 72, 1-(3-(azetidin-3-ylmethoxy)-4-methyl-1-phenyl-1H-pyrazol-5-yl)-3-(5-(methoxymethyl)-2-(trifluoromethoxy)benzyl)urea] | < 100 nM
9 | COCc1ccc(OC(F)(F)F)c(CNC(=O)Nc2c(C)c(OCC3(F)CCNC3)nn2-c2ccccc2)c1 (stereo not shown) [Example 73, 1-(3-((3-fluoropyrrolidin-3-yl)methoxy)-4-methyl-1-phenyl-1H-pyrazol-5-yl)-3-(5-(methoxymethyl)-2-(trifluoromethoxy)benzyl)urea] | < 100 nM
10 | COCc1ccc(OC(F)(F)F)c(CNC(=O)Nc2c(C)c(-c3cc(C)c(=O)n(C)c3)nn2-c2ccccc2)c1 [Example 74, 1-(3-(1,5-dimethyl-6-oxo-1,6-dihydropyridin-3-yl)-4-methyl-1-phenyl-1H-pyrazol-5-yl)-3-(5-(methoxymethyl)-2-(trifluoromethoxy)benzyl)urea] | < 100 nM
11 | COCc1ccc(OC(F)(F)F)c(CNC(=O)Nc2c(C)c(OCC3CN(C)C3)nn2-c2ccccc2)c1 [Example 75, 1-(5-(methoxymethyl)-2-(trifluoromethoxy)benzyl)-3-(4-methyl-3-((1-methylazetidin-3-yl)methoxy)-1-phenyl-1H-pyrazol-5-yl)urea] | < 100 nM
12 | COCc1ccc(OC(F)(F)F)c(CNC(=O)Nc2c(C)c(OCC3(F)CCN(C)C3)nn2-c2ccccc2)c1 (stereo not shown) [Example 76, 1-(3-((3-fluoro-1-methylpyrrolidin-3-yl)methoxy)-4-methyl-1-phenyl-1H-pyrazol-5-yl)-3-(5-(methoxymethyl)-2-(trifluoromethoxy)benzyl)urea] | < 100 nM
13 | COCc1ccc(OC(F)(F)F)c(CNC(=O)Nc2c(C)c(Oc3ccccc3)nn2-c2ccccc2)c1 [Example 77, 1-(5-(methoxymethyl)-2-(trifluoromethoxy)benzyl)-3-(4-methyl-3-phenoxy-1-phenyl-1H-pyrazol-5-yl)urea] | 100 to 1000 nM
14 | COCc1ccc(OC(F)(F)F)c(CNC(=O)Nc2c(C)c(OC3CCNCC3)nn2-c2ccccc2)c1 [Example 78, 1-(5-(methoxymethyl)-2-(trifluoromethoxy)benzyl)-3-(4-methyl-1-phenyl-3-(piperidin-4-yloxy)-1H-pyrazol-5-yl)urea] | < 100 nM
15 | COCc1ccc(OC(F)(F)F)c(CNC(=O)Nc2c(C)c(OC3CC4(CNC4)C3)nn2-c2ccccc2)c1 [Example 79, 1-(3-(2-azaspiro[3.3]heptan-6-yloxy)-4-methyl-1-phenyl-1H-pyrazol-5-yl)-3-(5-(methoxymethyl)-2-(trifluoromethoxy)benzyl)urea] | < 100 nM
16 | COCc1ccc(OC(F)(F)F)c(CNC(=O)Nc2c(C)c(O[C@H]3CNC[C@H]3F)nn2-c2ccccc2)c1 [Example 80, 1-(3-(((3S,4R)-4-fluoropyrrolidin-3-yl)oxy)-4-methyl-1-phenyl-1H-pyrazol-5-yl)-3-(5-(methoxymethyl)-2-(trifluoromethoxy)benzyl)urea] | < 100 nM
17 | COCc1ccc(OC(F)(F)F)c(CNC(=O)Nc2c(C)c(O[C@H]3CN(C)C[C@H]3F)nn2-c2ccccc2)c1 [Example 81, 1-(3-(((3S,4R)-4-fluoro-1-methylpyrrolidin-3-yl)oxy)-4-methyl-1-phenyl-1H-pyrazol-5-yl)-3-(5-(methoxymethyl)-2-(trifluoromethoxy)benzyl)urea] | < 100 nM

More lines, now with the values ahead:

Row | IC50 | Structure (SMILES)
18 | < 100 nM | COCc1ccc(OC(F)(F)F)c(CNC(=O)Nc2c(C)c(O[C@@H]3CCN(C)C3)nn2-c2ccccc2)c1 [Example 82, (R)-1-(5-(methoxymethyl)-2-(trifluoromethoxy)benzyl)-3-(4-methyl-3-((1-methylpyrrolidin-3-yl)oxy)-1-phenyl-1H-pyrazol-5-yl)urea]
19 | < 100 nM | COCc1ccc(OC(F)(F)F)c(CNC(=O)Nc2c(C)c(O[C@H]3CCNC3)nn2-c2ccccc2)c1 [Example 83, (S)-1-(5-(methoxymethyl)-2-(trifluoromethoxy)benzyl)-3-(4-methyl-1-phenyl-3-(pyrrolidin-3-yloxy)-1H-pyrazol-5-yl)urea]
20 | < 100 nM | COCc1ccc(OC(F)(F)F)c(CNC(=O)Nc2c(C)c(O[C@@H]3CCNC3)nn2-c2ccccc2)c1 [Example 84, (R)-1-(5-(methoxymethyl)-2-(trifluoromethoxy)benzyl)-3-(4-methyl-1-phenyl-3-(pyrrolidin-3-yloxy)-1H-pyrazol-5-yl)urea]
21 | < 100 nM | COCc1ccc(OC(F)(F)F)c(CNC(=O)Nc2c(C)c(OC3CC4(C3)CN(C)C4)nn2-c2ccccc2)c1 [Example 85, 1-(5-(methoxymethyl)-2-(trifluoromethoxy)benzyl)-3-(4-methyl-3-((2-methyl-2-azaspiro[3.3]heptan-6-yl)oxy)-1-phenyl-1H-pyrazol-5-yl)urea]
22 | < 100 nM | COCc1ccc(OC(F)(F)F)c(CNC(=O)Nc2c(C)c(OCC3(F)CNC3)nn2-c2ccccc2)c1 [Example 86, 1-(3-((3-fluoroazetidin-3-yl)methoxy)-4-methyl-1-phenyl-1H-pyrazol-5-yl)-3-(5-(methoxymethyl)-2-(trifluoromethoxy)benzyl)urea]
23 | < 100 nM | COCc1ccc(OC(F)(F)F)c(CNC(=O)Nc2c(C)c(OC[C@@H]3CCNC[C@H]3F)nn2-c2ccccc2)c1 [Example 87, 1-(3-(((3S,4S)-3-fluoropiperidin-4-yl)methoxy)-4-methyl-1-phenyl-1H-pyrazol-5-yl)-3-(5-(methoxymethyl)-2-(trifluoromethoxy)benzyl)urea]
24 | < 100 nM | COCc1ccc(OC(F)(F)F)c(CNC(=O)Nc2c(C)c(OC[C@H]3CCNC[C@H]3F)nn2-c2ccccc2)c1 [Example 88, 1-(3-(((3S,4R)-3-fluoropiperidin-4-yl)methoxy)-4-methyl-1-phenyl-1H-1-pyrazol-5-yl)-3-(5-(methoxymethyl)-2-(trifluoromethoxy)benzyl)urea 2,2,2-trifluoroacetate]
25 | < 100 nM | COCc1ccc(OC(F)(F)F)c(CNC(=O)Nc2c(C)c(OC3CNC3)nn2-c2ccccc2)c1 [Example 89, 1-(3-(azetidin-3-yloxy)-4-methyl-1-phenyl-1H-pyrazol-5-yl)-3-(5-(methoxymethyl)-2-(trifluoromethoxy)benzyl)urea]
26 | < 100 nM | COCc1ccc(OC(F)(F)F)c(CNC(=O)Nc2c(C)c(OC3CC4(CCN4)C3)nn2-c2ccccc2)c1 (stereo not shown) [Example 90, 1-(3-(1-azaspiro[3.3]heptan-6-yloxy)-4-methyl-1-phenyl-1H-pyrazol-5-yl)-3-(5-(methoxymethyl)-2-(trifluoromethoxy)benzyl)urea]
27 | < 100 nM | COCc1ccc(OC(F)(F)F)c(CNC(=O)Nc2c(C)c(OC[C@H]3CCN3)nn2-c2ccccc2)c1 [Example 91, (R)-1-(3-(azetidin-2-ylmethoxy)-4-methyl-1-phenyl-1H-pyrazol-5-yl)-3-(5-(methoxymethyl)-2-(trifluoromethoxy)benzyl)urea]
28 | < 100 nM | COCc1ccc(OC(F)(F)F)c(CNC(=O)Nc2c(C)c(OC[C@@H]3CCN3)nn2-c2ccccc2)c1 [Example 92, (S)-1-(3-(azetidin-2-ylmethoxy)-4-methyl-1-phenyl-1H-pyrazol-5-yl)-3-(5-(methoxymethyl)-2-(trifluoromethoxy)benzyl)urea]
